The term IC50 denotes the concentration needed to halve the response being measured.

Where two headings read alike, the source gives them in different places.

Series [1] can be described thus: Solubility in water (observation). It is filed as physicochemical.
In series [2] the test system is oral membrane herpes virus (VSV). It is filed as cell-based.
Series [3] has as its system influenza A virus (Jifang 90-15). Description: microbe, parasite or virus in culture. It counts as cell-based.

For the molecule `C=C1CC2(OS(=O)(=O)[O-])OC3(CC2C(C)C)C(C)CCC13.[Na+]` (centres unmarked) [Compound 21, Curcumol sodium sulfonate], in series [1], the “solubility in water (in words)” value was “soluble in water”. Besides, the “activity against VSV (in words)” value in series [2] (200 μg/ml) was “had the activity against VSV”; in series [2] (first round of the primary screening, 13 samples) it was “some activities against VSV”. Inhibition in series [3] (Influenza A virus, CPE in MDCK cells) was half-maximal at 47.7 µg/mL (IC50). Moreover, the “SI, influenza A virus” value in series [3] (SI = TC50/IC50) is 20.96.

These data come from patent publication US7700584B2 (Hangzhou Minsheng Pharmaceuticals Co., Ltd., priority 2004, dated 2010).
